≈ marks a conversion by molar mass, not a printed value. Positions of bridges follow the written chain, without caps; N, C: chain ends. Non-standard residues stand in square brackets, D forms with d. Residues, ends and D or L forms follow the SMILES beside them. Groups on a side chain read outwards from the residue. Chains are numbered I, II in the order given. Dap = NC[C@H](N)C(=O)O
Key:
Type in all cases: cell-based
[1] = test system: Pseudomonas aeruginosa (strain PA01); assay: microbe, parasite or virus in culture; conditions: strain
How it was run: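 P. aeruginosa PAO1 grown overnight in LB, diluted to OD600 0.001 and mixed with ⅔-step peptide dilutions, then incubated at 37 °C for 18–24 h. After MTT staining, the lowest concentration with no visible growth was read by eye as the MIC.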

[2] = test system: Bacillus subtilis (strain BR151); conditions: strain BR151
Experimental: (§1) Antimicrobial activity was assayed against Bacillus subtilis (strain BR151), Escherichia coli (strain DH5α) and Pseudomonas aeruginosa (strain PA01). Microdilution broth method was used to determine the minimal inhibitory concentration (MIC). A colony of bacteria was grown in LB-medium overnight at 37° C. The concentration was quantified by measuring absorbance at 600 nm and diluted to OD600=0.1 (1×10^8 CFU/mL). The samples were prepared as stock solutions of 1 mg mL^−1 in H2O and diluted serially by ⅔ in nutrient LB in a 96-well microtiterplate (Cornstar, polypropylene, untreated). The sample solutions (50 μL) were mixed with the diluted bacterial suspension with an OD600 nm of 0.001 (50 μL). […] The plates were incubated at 37° C. until satisfactory growth (18-24 h). For each test, two columns of the plate were kept for sterility control (SC, broth only) and growth control (GC, broth with bacterial inoculums, no antibiotics). 10 μL of a solution of MTT (0.1% in H2O) was added to each well. The minimal inhibitory concentration (MIC) was defined as the lowest concentration of the antimicrobial substance (peptide dendrimer) that inhibited visible growth of the tested bacteria (yellow) with the unaided eye. For microbiological study the linear peptide LysTyrLysLysAlaLeuLysLysLeuAlaLysLeuLeu (SEQ ID No. 1) was used as reference.
(§2) The AMPD library was tested for their antimicrobial activity against B. subtilis BR151, a Gram-positive bacterium and E. coli DH5α, another Gram-negative bacterium, to cover a broader spectrum of different bacteria. […] Therefore no explicit SAR can be established, but clearly the hydrophobic amino acids Ala and Tyr seem to have a significant influence in reducing activity.

[3] = test system: Escherichia coli (strain DH5α); conditions: DH5α
Experimental: as §1, §2

MIC P. aeruginosa PAO1 [1] [µg/mL]	MIC B. subtilis BR151 [2] [µg/mL]	MIC E. coli DH5α [3] [µg/mL]	SMILES
3 (≈ 0.684 µM)	4 (≈ 0.912 µM)	4 (≈ 0.912 µM)	CC(C)C[C@H](NC(=O)[C@H](CCCCN)NC(=O)[C@H](CCCCNC(=O)[C@H](CC(C)C)NC(=O)[C@@H](N)CCCCN)NC(=O)[C@H](CC(C)C)NC(=O)[C@@H](N)CCCCN)C(=O)NCCCC[C@H](NC(=O)[C@H](CC(C)C)NC(=O)[C@H](CCCCN)NC(=O)[C@H](CCCCNC(=O)[C@H](CC(C)C)NC(=O)[C@@H](N)CCCCN)NC(=O)[C@H](CC(C)C)NC(=O)[C@@H](N)CCCCN)C(=O)N[C@@H](CCCCN)C(=O)N[C@@H](CC(C)C)C(=O)N[C@@H](CSSC[C@H](NC(=O)[C@H](CC(C)C)NC(=O)[C@H](CCCCN)NC(=O)[C@H](CCCCNC(=O)[C@H](CC(C)C)NC(=O)[C@H](CCCCN)NC(=O)[C@H](CCCCNC(=O)[C@H](CC(C)C)NC(=O)[C@@H](N)CCCCN)NC(=O)[C@H](CC(C)C)NC(=O)[C@@H](N)CCCCN)NC(=O)[C@H](CC(C)C)NC(=O)[C@H](CCCCN)NC(=O)[C@H](CCCCNC(=O)[C@H](CC(C)C)NC(=O)[C@@H](N)CCCCN)NC(=O)[C@H](CC(C)C)NC(=O)[C@@H](N)CCCCN)C(N)=O)C(N)=O [CCS-3 dimer, ((KL)4(KKL)2KKLC)2] (I: H-KLK([Leu-Lys])KLKKLC-NH2 / II: H-KLK([Leu-Lys])KLKKLC-NH2 / III: H-KLK([Leu-Lys])KL / IV: H-KLK([Leu-Lys])KL; amide I:6-III:C, II:6-IV:C; disulfide I:9-II:9; N-terminus assumed)
9 (≈ 1.88 µM)	9 (≈ 1.88 µM)	13 (≈ 2.72 µM)	CC(C)C[C@H](NC(=O)[C@H](CCCNC(=N)N)NC(=O)[C@H](CCCCNC(=O)[C@H](CC(C)C)NC(=O)[C@@H](N)CCCNC(=N)N)NC(=O)[C@H](CC(C)C)NC(=O)[C@@H](N)CCCNC(=N)N)C(=O)NCCCC[C@H](NC(=O)[C@H](CC(C)C)NC(=O)[C@H](CCCNC(=N)N)NC(=O)[C@H](CCCCNC(=O)[C@H](CC(C)C)NC(=O)[C@@H](N)CCCNC(=N)N)NC(=O)[C@H](CC(C)C)NC(=O)[C@@H](N)CCCNC(=N)N)C(=O)N[C@@H](CCCNC(=N)N)C(=O)N[C@@H](CC(C)C)C(=O)N[C@@H](CSSC[C@H](NC(=O)[C@H](CC(C)C)NC(=O)[C@H](CCCNC(=N)N)NC(=O)[C@H](CCCCNC(=O)[C@H](CC(C)C)NC(=O)[C@H](CCCNC(=N)N)NC(=O)[C@H](CCCCNC(=O)[C@H](CC(C)C)NC(=O)[C@@H](N)CCCNC(=N)N)NC(=O)[C@H](CC(C)C)NC(=O)[C@@H](N)CCCNC(=N)N)NC(=O)[C@H](CC(C)C)NC(=O)[C@H](CCCNC(=N)N)NC(=O)[C@H](CCCCNC(=O)[C@H](CC(C)C)NC(=O)[C@@H](N)CCCNC(=N)N)NC(=O)[C@H](CC(C)C)NC(=O)[C@@H](N)CCCNC(=N)N)C(N)=O)C(N)=O [CCS-18 dimer, ((RL)4(KRL)2KRLC)2] (I: H-RLK([Leu-Arg])RLKRLC-NH2 / II: H-RLK([Leu-Arg])RLKRLC-NH2 / III: H-RLK([Leu-Arg])RL / IV: H-RLK([Leu-Arg])RL; amide I:6-III:C, II:6-IV:C; disulfide I:9-II:9; N-terminus assumed)
3 (≈ 0.489 µM)	10 (≈ 1.63 µM)	4 (≈ 0.651 µM)	CC(C)C[C@H](NC(=O)[C@H](CCCCN)NC(=O)[C@H](CCCCNC(=O)[C@H](CC(C)C)NC(=O)[C@H](CCCCN)NC(=O)[C@H](CCCCNC(=O)[C@H](CC(C)C)NC(=O)[C@H](CCCCN)NC(=O)CSC[C@H](NC(=O)[C@H](CC(C)C)NC(=O)[C@H](CCCCN)NC(=O)[C@H](CCCCNC(=O)[C@H](CC(C)C)NC(=O)[C@@H](N)CCCCN)NC(=O)[C@H](CC(C)C)NC(=O)[C@@H](N)CCCCN)C(N)=O)NC(=O)[C@H](CC(C)C)NC(=O)[C@H](CCCCN)NC(=O)CSC[C@H](NC(=O)[C@H](CC(C)C)NC(=O)[C@H](CCCCN)NC(=O)[C@H](CCCCNC(=O)[C@H](CC(C)C)NC(=O)[C@@H](N)CCCCN)NC(=O)[C@H](CC(C)C)NC(=O)[C@@H](N)CCCCN)C(N)=O)NC(=O)[C@H](CC(C)C)NC(=O)[C@H](CCCCN)NC(=O)[C@H](CCCCNC(=O)[C@H](CC(C)C)NC(=O)[C@H](CCCCN)NC(=O)CSC[C@H](NC(=O)[C@H](CC(C)C)NC(=O)[C@H](CCCCN)NC(=O)[C@H](CCCCNC(=O)[C@H](CC(C)C)NC(=O)[C@@H](N)CCCCN)NC(=O)[C@H](CC(C)C)NC(=O)[C@@H](N)CCCCN)C(N)=O)NC(=O)[C@H](CC(C)C)NC(=O)[C@H](CCCCN)NC(=O)CSC[C@H](NC(=O)[C@H](CC(C)C)NC(=O)[C@H](CCCCN)NC(=O)[C@H](CCCCNC(=O)[C@H](CC(C)C)NC(=O)[C@@H](N)CCCCN)NC(=O)[C@H](CC(C)C)NC(=O)[C@@H](N)CCCCN)C(N)=O)C(N)=O [CCS-20, (KL)8(KKLCxKL)4(KKL)2KKL]
2 (≈ 0.472 µM)	2 (≈ 0.472 µM)	1 (≈ 0.236 µM)	CC(C)C[C@H](NC(=O)[C@H](CCCCN)NC(=O)[C@H](CNC(=O)[C@H](CC(C)C)NC(=O)[C@H](CCCCN)NC(=O)[C@H](CNC(=O)[C@H](CC(C)C)NC(=O)[C@H](CCCCN)NC(=O)[C@H](CNC(=O)[C@H](CC(C)C)NC(=O)[C@@H](N)CCCCN)NC(=O)[C@H](CC(C)C)NC(=O)[C@@H](N)CCCCN)NC(=O)[C@H](CC(C)C)NC(=O)[C@H](CCCCN)NC(=O)[C@H](CNC(=O)[C@H](CC(C)C)NC(=O)[C@@H](N)CCCCN)NC(=O)[C@H](CC(C)C)NC(=O)[C@@H](N)CCCCN)NC(=O)[C@H](CC(C)C)NC(=O)[C@H](CCCCN)NC(=O)[C@H](CNC(=O)[C@H](CC(C)C)NC(=O)[C@H](CCCCN)NC(=O)[C@H](CNC(=O)[C@H](CC(C)C)NC(=O)[C@@H](N)CCCCN)NC(=O)[C@H](CC(C)C)NC(=O)[C@@H](N)CCCCN)NC(=O)[C@H](CC(C)C)NC(=O)[C@H](CCCCN)NC(=O)[C@H](CNC(=O)[C@H](CC(C)C)NC(=O)[C@@H](N)CCCCN)NC(=O)[C@H](CC(C)C)NC(=O)[C@@H](N)CCCCN)C(N)=O [MSt-136, (KL)8(BKL)4(BKL)2(BKL)] (I: H-KL[Dap]([Leu-Lys])KL[Dap]KL[Dap]KL-NH2 / II: H-KL[Dap]([Leu-Lys])KL[Dap]KL / III: H-KL[Dap]([Leu-Lys])KL / IV: H-KL[Dap]([Leu-Lys])KL; amide I:6-IV:C, I:9-II:C, II:6-III:C)
7 (≈ 1.5 µM)	4 (≈ 0.858 µM)	3 (≈ 0.644 µM)	CC(C)C[C@H](NC(=O)[C@H](CCCNC(=N)N)NC(=O)[C@H](CNC(=O)[C@H](CC(C)C)NC(=O)[C@H](CCCNC(=N)N)NC(=O)[C@H](CNC(=O)[C@H](CC(C)C)NC(=O)[C@H](CCCNC(=N)N)NC(=O)[C@H](CNC(=O)[C@H](CC(C)C)NC(=O)[C@@H](N)CCCNC(=N)N)NC(=O)[C@H](CC(C)C)NC(=O)[C@@H](N)CCCNC(=N)N)NC(=O)[C@H](CC(C)C)NC(=O)[C@H](CCCNC(=N)N)NC(=O)[C@H](CNC(=O)[C@H](CC(C)C)NC(=O)[C@@H](N)CCCNC(=N)N)NC(=O)[C@H](CC(C)C)NC(=O)[C@@H](N)CCCNC(=N)N)NC(=O)[C@H](CC(C)C)NC(=O)[C@H](CCCNC(=N)N)NC(=O)[C@H](CNC(=O)[C@H](CC(C)C)NC(=O)[C@H](CCCNC(=N)N)NC(=O)[C@H](CNC(=O)[C@H](CC(C)C)NC(=O)[C@@H](N)CCCNC(=N)N)NC(=O)[C@H](CC(C)C)NC(=O)[C@@H](N)CCCNC(=N)N)NC(=O)[C@H](CC(C)C)NC(=O)[C@H](CCCNC(=N)N)NC(=O)[C@H](CNC(=O)[C@H](CC(C)C)NC(=O)[C@@H](N)CCCNC(=N)N)NC(=O)[C@H](CC(C)C)NC(=O)[C@@H](N)CCCNC(=N)N)C(N)=O [MSt-137, (RL)8(BRL)4(BRL)2(BRL)] (I: H-RL[Dap]([Leu-Arg])RL[Dap]RL[Dap]RL-NH2 / II: H-RL[Dap]([Leu-Arg])RL[Dap]RL / III: H-RL[Dap]([Leu-Arg])RL / IV: H-RL[Dap]([Leu-Arg])RL; amide I:6-IV:C, I:9-II:C, II:6-III:C)
2 (≈ 0.926 µM)	16 (≈ 7.4 µM)	17 (≈ 7.87 µM)	CC(C)C[C@H](NC(=O)[C@H](CCCNC(=N)N)NC(=O)[C@H](CNC(=O)[C@H](CC(C)C)NC(=O)[C@H](CCCNC(=N)N)NC(=O)[C@H](CNC(=O)[C@H](CC(C)C)NC(=O)[C@@H](N)CCCNC(=N)N)NC(=O)[C@H](CC(C)C)NC(=O)[C@@H](N)CCCNC(=N)N)NC(=O)[C@H](CC(C)C)NC(=O)[C@H](CCCNC(=N)N)NC(=O)[C@H](CNC(=O)[C@H](CC(C)C)NC(=O)[C@@H](N)CCCNC(=N)N)NC(=O)[C@H](CC(C)C)NC(=O)[C@@H](N)CCCNC(=N)N)C(N)=O [MSt-139, (RL)4(BRL)2(BRL)] (I: H-RL[Dap]([Leu-Arg])RL[Dap]RL-NH2 / II: H-RL[Dap]([Leu-Arg])RL; amide I:6-II:C)

Source: patent US10336792B2, “Antimicrobial peptide dendrimers” (priority 2014, dated 2019)
